Data: PMC1190152, “Archazolid and apicularen: Novel specific V-ATPase inhibitors” (BMC Biochemistry, 2005)
Read-outs that look alike come from different tables or passages of the source.

Tests used:
[1] = target: T1, F-ATPase (Bos taurus, UniProt P00829); assay: Inhibition of F-ATPase activity in submitochondrial particles from beef heart; format: biochemical
T1 construct: Submitochondrial particles were obtained by ultrasonic treatment of the mitochondria; from tissue; host or cells: beef heart mitochondria, submitochondrial particles
Method: (§1) The V-ATPase holoenzyme was purified as published elsewhere. Preparation of highly purified membranes containing Na^+/K^+-ATPase from pig kidney followed the protocol of Jørgensen with the three main steps of differential centrifugation, incubation with SDS in the presence of ATP and sucrose density gradient centrifugation in a fixed angle rotor, and led to a specific enzyme activity which was in the same range as that reported by the authors. The resulting sample was stored frozen at -20°C. To prepare crude membrane extracts, the hearts of three mice were washed three times with an ice-cold buffer of pH 8.1 consisting of 0.25 M sucrose, 5 mM Tris-HCl, 5 mM EDTA, and 10 mM Pefabloc SC (Biomol), homogenized in 5 ml of this buffer and centrifuged at 4°C for 25 min at 233,000 × gmax in a fixed angle rotor. The resulting pellet was resuspended in 5 ml of a buffer of pH 7.5, consisting of 5 mM Tris-MOPS (3-morpholinopropanesulfonic acid), 10 mM NaCl, 10 mM Pefabloc SC, 9.6 mM 2-mercaptoethanol, 0.53 mM EGTA and 0.1 % Triton X-100. After an aliquot for protein determination had been taken, 10% bovine serum albumin (final concentration) was added to the suspension which was then stored on ice until the activity assays were run. Beef heart mitochondria were isolated by differential centrifugation, following the protocol of Smith by using a blender to homogenize the heart mince. The initial homogenization buffer consisted of 250 mM saccharose, 10 mM KH2PO4, 10 mM Tris, 2 mM EGTA, 2 mM MgCl2, pH 7.4, and further isolation procedures were carried out in the same medium without EGTA [24]. Submitochondrial particles were obtained by ultrasonic treatment of the mitochondria.
(§2) Standard V-ATPase assays with a final volume of 160 μl and a pH of 8.1 consisted of 3–4 μg of protein, 50 mM Tris-MOPS, 3 mM 2-mercaptoethanol, 1 mM MgCl2, 20 mM KCl, 0.003% C12E10, 20 mM NaCl, and 3 mM Tris-HCl. After 5 min of pre-incubation at 30°C with or without inhibitors, 1 mM Tris-ATP was added and after incubation for 2 min the reaction was stopped by placing the tube in liquid nitrogen. Assays using Na^+/K^+-ATPase were performed in 160 μl at pH 7.5 and contained 0.5 μg of protein, 50 mM Tris-MOPS, 5 mM imidazole, 0.2 mM EDTA, 4 mM MgCl2, 20 mM KCl and 100 mM NaCl. After 5 min of pre-incubation at 37°C with or without inhibitors, 3 mM Tris-ATP was added and after 1 min of incubation the reaction was stopped by placing the tube in liquid nitrogen. […] After 5 min of pre-incubation at 30°C with or without inhibitors, 1 mM Tris-ATP was added and after an incubation time of 10 min the reaction was stopped by placing the tubes in liquid nitrogen. ATPase assays with submitochondrial particles from beef heart were performed in a final volume of 1 ml and a pH of 8.0. The samples contained 9–12 μg protein, 50 mM Tris, 50 mM KCl and 2.5 mM MgCl2. After 5 min of preincubation with or without inhibitors, 5 mM ATP was added, and after an additional incubation time of 15 min the reaction was stopped by the addition of 0.4 ml of 20 % TCA.
(§3) Inorganic phosphate produced in the assays of V-ATPase, Na^+/K^+-ATPase and mouse heart F-ATPase was measured according the protocol of Wieczorek et al., while the determination of inorganic phosphate produced in the assays of beef heart F-ATPase followed the method of Fiske and Subarrow using ascorbic acid as reducing agent.

[2] = target: T2, F-ATPase (Mus musculus, UniProt P56480); assay: Inhibition of F-ATPase activity in crude membranes from mouse heart; format: biochemical
T2 construct: we prepared mitochondria rich crude membranes from mouse heart; from tissue; host or cells: mouse heart, crude membrane extract
Method: as §1, §2, §3

[3] = target: T3, Na+/K+-ATPase (Sus scrofa, UniProt P05024); assay: Inhibition of Na+/K+-ATPase from pig kidney; format: biochemical
T3 construct: highly purified, Na^+/K^+-ATPase containing plasma membranes from pig kidney; from tissue; host or cells: pig kidney, purified plasma membranes
Method: as §1, §2, §3

[4] = target: T4, V-ATPase holoenzyme from the midgut of the tobacco hornworm (Manduca sexta, UniProt P31403); set-up: method as in PMID 12186879; conditions: ref [10], cited from earlier work
T4 construct: purified V-ATPase holoenzyme from the midgut of the tobacco hornworm; from tissue; host or cells: midgut of fifth instar Manduca sexta larvae
T4 sequence (P31403 whole entry): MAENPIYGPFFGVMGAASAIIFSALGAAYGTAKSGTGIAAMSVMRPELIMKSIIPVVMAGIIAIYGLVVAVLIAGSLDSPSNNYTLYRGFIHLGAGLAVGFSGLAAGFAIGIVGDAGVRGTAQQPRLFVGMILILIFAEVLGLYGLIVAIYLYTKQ

[5] = target: T5, Vo subunit c (Manduca sexta, UniProt P31403); set-up: method as in PMID 12186879; conditions: previous study; ref [10]; cited from earlier work
T5 construct: from tissue; host or cells: midgut of Manduca sexta larvae (purified V-ATPase)
T5 sequence (P31403 whole entry): as above

[6] = tested on: KB-V1; assay: Growth inhibition of multidrug-resistant KB-V1 cells (MTT assay), with or without verapamil; format: cell-based; conditions: 120 h; KB-V1, mdr human cervix carcinoma; without verapamil; MTT after 5 days
Method: The novel antibiotics archazolids and apicularens (Fig. 1) were checked for their impact on the cell growth of a variety of mammalian cell lines from different tissues (Tab. 1). […] Apicularen B was the only exception, with an average IC50 value two orders of magnitude higher. Growth inhibition of the multidrug-resistant cell line KB-V1 was also measured in the presence of verapamil. […] The data in Tab 1. show, that unlike the archazolids, the apicularens are poor substrates of Pgp. To visualize the impact of the antibiotics, PtK2 (potoroo kidney) cells were incubated with the inhibitors and stained for intact acidic lysosomes (Fig. 2). […] The same observation was made with KB-3-1 cells (data not shown). […] Unlike the cell lines listed in Tab. 1, the growth of PtK2 cells was not completely stopped. The same holds true for A-498 cells (human kidney carcinoma). Both cell lines grow epithelial-like. There was obviously a differential reaction of cell lines to V-ATPase inhibitors. For A-431 cells (human epidermoid carcinoma) a dependence on the expression of the EGF receptor was shown.
(§4) Cell lines were obtained from the German Collection of Microorganisms and Cell Cultures (DSMZ). Cell lines 3Y1 and M1 (embryonal fibroblasts from 129/Ola × C57BL/6 mice, [30]) were a generous gift from Dr. S. Miyamoto, Fukoka, Japan, and Dr. P. F. Mühlradt, Braunschweig, Germany. All cell lines were cultivated under conditions recommended by the supplier. Growth inhibition was measured in microtiterplates. Aliquots of 120 μl of the suspended cells (50,000/ml) were given to 60 μl of a serial dilution of the inhibitor. After 5 days, growth was determined using the MTT assay.

[7] = tested on: A-594; assay: Growth inhibition of A-594 cells (MTT assay); format: cell-based, human; conditions: 120 h, read-out: IC50 growth inhibition
Method: as §4

[8] = target: T4, V-ATPase holoenzyme from the midgut of the tobacco hornworm; assay: Inhibition of purified V-ATPase holoenzyme activity; format: biochemical
Method: as §1, §2, §3
Fifth instar larvae of M. sexta (Lepidoptera, Sphingidae), weighing 6–8 g, were reared under long day conditions (16 h of light) at 27°C using a synthetic diet modified according to Bell et al.

[9] = tested on: M1; assay: Growth inhibition of M1 cells (MTT assay); format: cell-based, mouse; conditions: 120 h, read-out: IC50 growth inhibition
Method: as §4

[10] = tested on: 3Y1; assay: Growth inhibition of 3Y1 cells (MTT assay); format: cell-based, rat; conditions: read-out: IC50 growth inhibition
Method: as §4

[11] = tested on: L-929; set-up: method as in PMID 12931860; conditions: L-929, murine connective tissue; ref [17]; read-out: IC50 growth inhibition; cited from earlier work
[12] = tested on: bacterial growth; conditions: ref [11],[15],[17]; cited from earlier work
[13] = tested on: PtK2 cells; assay: Inhibition of lysosomal acidification (LysoTracker staining); format: cell-based, potoroo; conditions: 4 hours with inhibitor
Method: PtK2 (ATCC CCL-56) or KB-3-1 cells were grown on glass coverslips (13 mm diameter) in four-well-plates. Exponentially growing cells were incubated with the inhibitors for 4 hours and stained for lysosomes with 50 nM LysoTracker Red DND-99 and for mitochondria with 75 nM MitoTracker Green FM (both from Molecular Probes) at 37°C for 30 min. The nuclei were stained using Hoechst 33258 (5 μg/ml). The coverslips were mounted upside down in PBS, fixed with nail polish, and observed under the fluorescent microscope.

[14] = beef heart submitochondrial particles, specific F-ATPase inhibitors
[15] = mouse heart crude membranes, specific F-ATPase inhibitors
[16] = read-out: ATPase activity reduced to (remaining activity)
[17] = experiment 1, inhibitor 0.1 mM, control 19.0
[18] = experiment 1, inhibitor 1 mM, control 19.0
[19] = experiment 2, inhibitor 1 mM, control 15.9
[20] = beef heart submitochondrial particles, inhibitor 1 μM
[21] = mouse heart crude membranes, inhibitor 1 μM

## CC[C@H]1/C=C/C=C/C[C@@H](C)[C@H](O)[C@@](C)(O)C(=O)[C@@H](C)[C@H](O)[C@@H](C)C(=O)[C@@H](C)[C@H](O)[C@@H](C)/C=C/C(=O)O[C@@H]2[C@H](C)[C@H](CC1)O[C@]1(CC[C@H](C)[C@H](C[C@@H](C)O)O1)[C@H]2C [oligomycin, reference compound]
[1]; [14]
  ATPase activity reduced to (remaining activity): around 25%
[2]; [15]
  ATPase activity reduced to (remaining activity): around 25%

## [N-]=[N+]=[N-] [azide, reference compound]
[1]; [14]
  ATPase activity reduced to (remaining activity): around 25%
[2]; [15]
  ATPase activity reduced to (remaining activity): around 25%

## C/C=C/[C@H]1O[C@@](O)([C@@H](C)[C@H](O)[C@H](C)[C@H]2OC(=O)/C(OC)=C/C(C)=C/[C@@H](C)[C@@H](O)[C@@H](CC)[C@@H](O)[C@H](C)C/C(C)=C/C=C/[C@@H]2OC)C[C@@H](O)[C@@H]1C [concanamycin, reference compound]
[1]; [16]
  remaining activity at 1 µM: ~80%
[2]; [16]
  remaining activity at 1 µM: ~80%

## [O]=[V]([O-])([O-])[O-] [vanadate]
[3]; [17]
  specific activity of Na+/K+-ATPase: 2.0 µmol/mg/min
[3]; [18]
  specific activity of Na+/K+-ATPase: 0 µmol/mg/min
[3]; [19]
  specific activity of Na+/K+-ATPase: 0 µmol/mg/min
[3]; inhibitor 1 mM
  effect on Na+/K+-ATPase activity: completely inhibited

## apicularen
[1]; [20]
  ATPase activity reduced to (remaining activity): approximately 80%
[1]; beef heart submitochondrial particles, inhibitor 10 μM
  effect of increased inhibitor concentration on F-ATPase activity: no substantial effect
[2]; [21]
  ATPase activity reduced to (remaining activity): approximately 80%
[2]; mouse heart crude membranes, inhibitor 10 μM
  effect of increased inhibitor concentration on F-ATPase activity: no substantial effect

## CO/C1=C\C(C)=C\[C@@H](C)[C@@H](O)[C@@H](C)C/C(C)=C/C=C/[C@H](OC)[C@@H]([C@@H](C)[C@@H](O)[C@H](C)[C@@]2(O)C[C@@H](OC(=O)/C=C/C(=O)NC3=C(O)CCC3=O)[C@H](C)[C@@H](C(C)C)O2)OC1=O [bafilomycin B1]
[4]
  IC50 per mg of protein, purified V-ATPase: ca. 0.5 nmol per mg of protein
[4]; read-out: half-maximal inhibition concentration of purified V-ATPase
  IC50: ~10 nM
[5]
  labelling of / binding to subunit c: prevented

## CO/C1=C\C(C)=C\[C@@H](C)[C@@H](O)[C@@H](C)C/C(C)=C/C=C/[C@H](OC)[C@@H]([C@@H](C)[C@@H](O)[C@H](C)[C@@]2(O)C[C@@H](O)[C@H](C)[C@@H](C(C)C)O2)OC1=O [bafilomycin, reference compound]
[1]; [20]
  ATPase activity reduced to (remaining activity): approximately 80%
[2]; [21]
  ATPase activity reduced to (remaining activity): approximately 80%

## CNC(=O)O[C@@H](CC(C)C)c1nc([C@H]2OC(=O)/C=C/C/C(C)=C/[C@@H](O)[C@@H](C)\C=C(C)/C=C(C)\C=C\[C@@H](O)[C@H](C)[C@H](OC)/C(C)=C/C=C/[C@@H]2C)cs1 [archazolid B]
[6]
  IC50: 35 nM
[7]; Homo sapiens
  IC50: 0.69 nM
[8]
  IC50: ~20 nM
[8]; equivalent of the half-maximal concentration
  IC50 per mg of protein, purified V-ATPase: ca. 0.8 nmol per mg of protein
[9]; Mus musculus, Fibroblast
  IC50: 0.35 nM
[10]; Rattus norvegicus, 3Y1, 120 h
  IC50: 1.1 nM
[11]
  IC50: 1.1 nM
[12]
  inhibition of bacterial growth: failed to inhibit

## C[C@@H]1O[C@@H](O[C@H]2C[C@@H](O)[C@]3(CO)[C@H]4[C@H](O)C[C@]5(C)[C@@H](C6=CC(=O)OC6)CC[C@]5(O)[C@@H]4CC[C@]3(O)C2)[C@H](O)[C@H](O)[C@H]1O [ouabain]
[3]; [17]
  specific activity of Na+/K+-ATPase: 5.2 µmol/mg/min
[3]; [18]
  specific activity of Na+/K+-ATPase: 0 µmol/mg/min
[3]; [19]
  specific activity of Na+/K+-ATPase: 0 µmol/mg/min
[3]; inhibitor 1 mM
  effect on Na+/K+-ATPase activity: completely inhibited

## CO/C1=C\C(C)=C\[C@@H](C)[C@@H](O)[C@@H](C)C/C(C)=C/C=C/[C@H](OC)[C@@H]([C@@H](C)[C@@H](O)[C@H](C)[C@@]2(O)C[C@@H](O)[C@H](C)[C@@H](C(C)C)O2)OC1=O [bafilomycin A1, reference compound]
[13]
  red LysoTracker staining indicating acidic lysosomes: disappeared
[6]
  IC50: 7.2 nM
[7]; A-594, human lung carcinoma, MTT after 5 days
  IC50: 0.4 nM
[5]
  labelling of / binding to subunit c: prevented
[9]; M1, mouse embryogenic fibroblast cell line, MTT after 5 days
  IC50: 2.6 nM
[10]; 120 h, 3Y1, rat embryogenic fibroblast cell line, MTT after 5 days
  IC50: 5.6 nM
[11]
  IC50: 3.2 nM
